Patent publication US11590163B2, “Iron-fortified food composition” (SOCIETE DES PRODUITS NESTLE S.A., priority 2017, dated 2023)

How the values were obtained:
[1] = Colour change in iron-fortified bouillon (CIELAB ΔEab*); format: physicochemical; settings: chicken bouillon containing curcumin, approx. 5.5 mg iron per 6.55 g powder, reconstituted in 250 mL boiling water, 60° C. min. 30 minutes; vs bouillon with no iron
Procedure: Commercial Maggi Chicken Bouillon (Nestle Nigeria) containing curcumin was iron fortified by the addition of iron (III) complexes from Example 1, as well as ferrous sulphate (Dr. P. Lohmann GmbH KG) Ref1, and […] (Dr. P. Lohmann GmbH KG) Ref2. The amounts were chosen to provide approximately 5.5 mg of iron per 6.55 g of bouillon powder. A further sample without iron fortification was also prepared in the same manner. All samples were reconstituted in 250 mL of boiling water and kept at 60° C. for a minimum of 30 minutes.
Colour measurements were performed in 2.6×1 cm quartz cuvettes using an XRite ColorEye 7000A colorimeter. The colorimeter was set up with a D65 light source, 10 degree observer angle, specular component included and Large area View (LAV). The colour difference between the beverage with no iron salt and the iron-fortified beverages was measured for each material and expressed as ΔEab* using the CIELAB colour scale (Table 2).

[2] = Human stable-isotope iron bioavailability study (erythrocyte incorporation); format: in vivo; settings: healthy adult women
Procedure: Clinical trials were performed on fortified chicken bouillon and fortified chicken bouillon with corn flour to simulate inhibitory conditions. The trial was performed by ETH Zurich (Switzerland). The study was a controlled, single blind, single centre, and randomized cross-over trial in 22 healthy adult women, with each woman serving as their own control. Each participant consumed 6 different types of investigational products: bouillon respectively bouillon with maize porridge fortified either with PA:^58Fe:HCP, ^54FeSO4, (Ref1-labelled) or ^57FePP (Ref2-labelled). The PA:^58Fe:HCP complex was prepared as Example 1 sample 9 apart from the use of ^58Fe. The order of test meal administration was randomly assigned. […]
Fractional iron absorption (FIA) was calculated based on the measured shift of iron isotope ratios in the blood 14 days after the test meal administrations, from the blood samples collected on days 1, 17 and 35. […] The amounts of ^54Fe, ^57Fe and ^58Fe in the blood were calculated on the principle of isotope dilution by considering that iron isotopic labels are not mono-isotopic. Circulating iron was calculated based on blood volume and hemoglobin concentration. Blood volume was indirectly measured based on height and weight and calculated using the formula proposed by Brown et al [E. Brown et al., The Journal of clinical investigation, 41:21, 82-90.(1962)]. […]

Row | SMILES | Δ E [1] | fractional iron absorption ([2]; in bouillon plus maize meal rich in phytate) [%] | fractional iron absorption ([2]; in bouillon) [%]
1 | O=S(=O)([O-])[O-].[Fe+2] [Ref1, ferrous sulphate] | 15.2 | – | –
2 | O=S(=O)([O-])[O-].[54Fe+2] [^54FeSO4] | – | 3.6 | 24.6
